This note sets out measurements from US20230365571A1, “COMPOUNDS AND COMPOSITIONS AS Sppl2a INHIBITORS” (Novartis AG, priority 2020, published 2023).

Common to all, as to type: cell-based
One test addresses T1, Sppl2a CD74 (Mus musculus, UniProt Q9JJF9).
T1 construct: Mouse whole blood Balb/c mice (sodium citrate) was ordered by Bioreclamation LLC; tissue Bioreclamation LLC
T1 sequence (Q9JJF9 26-523): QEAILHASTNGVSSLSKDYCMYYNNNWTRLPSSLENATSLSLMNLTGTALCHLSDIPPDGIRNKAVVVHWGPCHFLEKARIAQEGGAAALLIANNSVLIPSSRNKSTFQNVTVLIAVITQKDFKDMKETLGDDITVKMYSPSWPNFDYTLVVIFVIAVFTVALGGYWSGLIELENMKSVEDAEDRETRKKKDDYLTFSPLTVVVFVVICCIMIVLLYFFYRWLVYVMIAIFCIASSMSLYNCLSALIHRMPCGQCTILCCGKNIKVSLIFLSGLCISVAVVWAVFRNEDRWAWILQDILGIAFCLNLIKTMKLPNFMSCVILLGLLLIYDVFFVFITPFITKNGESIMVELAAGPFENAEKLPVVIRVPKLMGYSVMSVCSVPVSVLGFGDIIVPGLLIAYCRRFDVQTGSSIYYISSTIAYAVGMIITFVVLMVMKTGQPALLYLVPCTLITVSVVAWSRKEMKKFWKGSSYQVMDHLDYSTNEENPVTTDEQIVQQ
Kind of test: CD74/p8 mouse whole blood assay, flow cytometry format. The following applies: Balb/c mouse whole blood, 5 h, CD74 signal on gated live B cells. In outline:
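Balb/c mouse whole blood (citrate) incubated 5 h at 37 °C with compounds, 11-point dilution from 30 μM top. After RBC lysis, live B220+ B cells stained intracellularly for CD74 (FITC) and analysed by flow cytometry. IC50 fitted from CD74 median fluorescence intensity.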

The target in test [1] is T2, human SPPL2a (Homo sapiens, UniProt Q8TCT8).
T2 sequence (Q8TCT8 26-520): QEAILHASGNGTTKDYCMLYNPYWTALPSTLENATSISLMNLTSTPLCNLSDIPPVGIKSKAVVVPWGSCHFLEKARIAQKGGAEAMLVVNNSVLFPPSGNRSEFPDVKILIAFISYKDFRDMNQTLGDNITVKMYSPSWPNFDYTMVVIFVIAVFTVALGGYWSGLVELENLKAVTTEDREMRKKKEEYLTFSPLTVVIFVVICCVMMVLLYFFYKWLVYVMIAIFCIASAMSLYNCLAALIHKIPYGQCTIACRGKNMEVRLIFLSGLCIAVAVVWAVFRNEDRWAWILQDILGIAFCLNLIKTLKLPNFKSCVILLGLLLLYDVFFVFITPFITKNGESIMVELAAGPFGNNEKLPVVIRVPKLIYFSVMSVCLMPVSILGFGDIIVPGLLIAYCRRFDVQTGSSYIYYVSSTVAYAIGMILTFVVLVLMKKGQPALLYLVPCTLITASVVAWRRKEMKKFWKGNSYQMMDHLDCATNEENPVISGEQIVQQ
Kind of test: Sppl2a TL (translocation) imaging assay in U-2 OS cells. Also noted: expressed in transfected cells. The following applies: U-2 OS cells expressing human SPPL2a and EGFP-TNFα(aa1-76) NTF substrate; 24 h. In outline: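 U-2 OS cells stably expressing human SPPL2a plus doxycycline-induced EGFP-TNFα(aa1-76) NTF, treated 24 h at 37 °C with inhibitor (100 μM–1 nM, 11 points, 0.9% DMSO, 5 μg/mL doxycycline). Imaging of nuclear-minus-cytoplasmic EGFP intensity; % inhibition versus 0.5 μM LY-411,575 and DMSO, IC50 by nonlinear regression; CC50 from cell count.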

The target of test [2] is T2, human SPPL2a. Kind of test: Sppl2a RGA (reporter gene assay) in HEK293 cells. The following applies: NT-TNF-VP16-Gal4 substrate, Gal4-luciferase reporter, 24 h. On the set-up: expressed in transfected cells; host or cells: HEK293 (transient). In short, it runs like this:
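HEK293 cells transiently co-transfected with human SPPL2a, NT-TNF-VP16-Gal4 substrate and Gal4-luciferase reporter, compound added within 5 h. After 24 h at 37 °C, luciferase luminescence measured; IC50 from concentration versus normalized luminescence.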
(In general: In a reporter assay the amount or activity of a reporter protein is the signal.)

On to `CC(C)NC(=O)c1nc(Cl)c(NC(=O)C[C@@H](C)C(=O)N[C@@H]2C(=O)N3CCCN3Cc3ccccc32)s1` [Example 64, (R)-N^4-(4-Chloro-2-(isopropylcarba-moyl)thiazol-5-yl)-2-methyl-N^1-((S)-11-oxo-2,3,10,11-tetrahydro-1H,5H-benzo[d]pyrazolo [1,2-a][1,2]diazepin-10-yl)succinamide], for which the 50% inhibitory concentration (IC50) (commonly the concentration at which inhibition is half-maximal) at Sppl2a CD74 was found to be 0.23 µM; against human SPPL2a [1], 0.001 µM; at human SPPL2a [2], 0.003 µM.

For the compound `C[C@H](CC(=O)Nc1cc(C(=O)NCC(F)F)nn1C)C(=O)N[C@@H]1C(=O)N2CCCN2Cc2ccccc21` [Example 65, (R)-N^4-(3-((2,2-difluoroethyl)car-bamoyl)-1-methyl-1H-pyrazol-5-yl)-2-methyl-N^1-((S)-11-oxo-2,3,10,11-tetrahydro-1H,5H-benzo[d]pyrazolo [1,2-a][1,2]diazepin-10-yl)succinamide], the figures for the IC50 on Sppl2a CD74, on human SPPL2a [1] and on human SPPL2a [2] were 0.519 µM, 0.001 µM and 0.014 µM, respectively.

As for `Cc1nc(C(=O)NC(C)C)sc1NC(=O)C[C@@H](C)C(=O)N[C@@H]1C(=O)N2CCCN2Cc2ccccc21` [Example 66, (R)-N^4-(2-(Isopropylcarba-moyl)-4-methylthiazol-5-yl)-2-methyl-N^1-((S)-11-oxo-2,3,10,11-tetrahydro-1H,5H-benzo[d]pyrazolo [1,2-a][1,2]diazepin-10-yl)succinamide], the IC50 against Sppl2a CD74 worked out at 0.136 µM; at human SPPL2a [1], 0.002 µM; at human SPPL2a [2], 0.002 µM.

As for `C[C@H](CC(=O)Nc1cc(C(=O)NCC(F)(F)F)nn1C)C(=O)N[C@@H]1C(=O)N2CCCN2Cc2ccccc21` [Example 68, (R)-2-methyl-N^4-(1-methyl-3-((2,2,2-trifluoroethyl)car-bamoyl)-1H-pyrazol-5-yl)-N^1-((S)-11-oxo-2,3,10,11-tetrahydro-1H,5H-benzo[d]pyrazolo [1,2-a][1,2]diazepin-10-yl)succinamide], the IC50 at Sppl2a CD74 was 0.329 µM; on human SPPL2a [1] it was 0.003 µM; against human SPPL2a [2], 0.034 µM.

Take `C[C@H](CC(=O)Nc1cc(NC(=O)c2ccccc2F)nn1C)C(=O)N[C@@H]1C(=O)N2CCCN2Cc2ccccc21` [Example 69, (R)-N^4-(3-(2-Fluorobenzamido)-1-methyl-1H-pyrazol-5-yl)-2-methyl-N^1-((S)-11-oxo-2,3,10,11-tetrahydro-1H,5H-benzo[d]pyrazolo [1,2-a][1,2]diazepin-10-yl)succinamide]: the IC50 at Sppl2a CD74 was found to be 1.24 µM; at human SPPL2a [1], 0.003 µM; against human SPPL2a [2] it was 0.009 µM.

Consider `C[C@H](CC(=O)Nc1cc(NC(=O)c2cccc(F)c2F)nn1C)C(=O)N[C@@H]1C(=O)N2CCCN2Cc2ccccc21` [Example 76, (R)-N^4-(3-(2,3-Difluorobenzamido)-1-methyl-1 H-pyrazol-5-yl)-2-methyl-N^1-((S)-11-oxo-2,3,10,11-tetrahydro-1H,5H-benzo[d]pyrazolo [1,2-a][1,2]diazepin-10-yl)succinamide], for which the IC50 amounted to 1.69 µM against Sppl2a CD74, 0.005 µM against human SPPL2a [1] and 0.007 µM against human SPPL2a [2].

As to `CC(C)NC(=O)c1cc(NC(=O)C[C@H](C(=O)N[C@@H]2C(=O)N3CCCN3Cc3c(F)cccc32)C2CC2)n(C)n1` [Example 77, (S)-2-Cyclopropyl-N^1-((S)-6-fluoro-11-oxo-2,3,10,11-tetrahydro-1H,5H-benzo[d]pyrazolo [1,2-a][1,2]diazepin-10-yl)-N^4-(3-(isopropylcarba-moyl)-1-methyl-1H-pyrazol-5-yl)succinamide], the IC50 against Sppl2a CD74 turned out to be 0.25 µM; against human SPPL2a [1], 0.006 µM; on human SPPL2a [2] it was 0.005 µM.

For `Cc1cc(-c2cc(NC(=O)C[C@@H](C)C(=O)N[C@@H]3C(=O)N4CCCN4Cc4ccccc43)n(C)n2)no1` [Example 80, (R)-2-Methyl-N^4-(1-methyl-3-(5-methylisoxazol-3-yl)-1H-pyrazol-5-yl)-N^1-((S)-11-oxo-2,3,10,11-tetrahydro-1H,5H-benzo[d]pyrazolo [1,2-a][1,2]diazepin-10-yl)succinamide], the values for the IC50 at Sppl2a CD74, at human SPPL2a [1] and on human SPPL2a [2] were 0.91 µM, 0.007 µM and 0.008 µM, respectively.

For the compound `CC(C)C(=O)Nc1cc(NC(=O)C[C@H](C(=O)N[C@@H]2C(=O)N3CC4(CC4)CN3C(=O)c3ccccc32)C2CCC2)n(C)n1` [Example 82, (S)-2-Cyclobutyl-N^1-((S)-5,11-dioxo-10,11-dihydro-1H,3H,5H-spiro[benzo[d]pyrazolo[1,2-a][1,2]diazepine-2,1′-cyclopropan]-10-yl)-N^4-(3-isobutyramido-1-methyl-1H-pyrazol-5-yl)succinamide], the IC50 against Sppl2a CD74 came to 1.87 µM; against human SPPL2a [1], 0.009 µM; against human SPPL2a [2], 0.036 µM.

As for `CCn1nc(-c2ccco2)cc1NC(=O)C[C@@H](C)C(=O)N[C@@H]1C(=O)N2CCCN2Cc2ccccc21` [Example 85, (R)-N^4-(1-Ethyl-3-(furan-2-yl)-1H-pyrazol-5-yl)-2-methyl-N^1-((S)-11-oxo-2,3,10,11-tetrahydro-1H,5H-benzo[d]pyrazolo [1,2-a][1,2]diazepin-10-yl)succinamide], the IC50 against Sppl2a CD74 was 0.203 µM; on human SPPL2a [1] it was 0.01 µM; against human SPPL2a [2], 0.022 µM.

With `C[C@H](CC(=O)Nc1cc(NC(=O)C(C)(C)C)nn1C)C(=O)N[C@@H]1C(=O)N2CCCN2Cc2ccccc21` [Example 89, (R)-2-Methyl-N^4-(1-methyl-3-pivalamido-1H-pyrazol-5-yl)-N^1-((S)-11-oxo-2,3,10,11-tetrahydro-1H,5H-benzo[d]pyrazolo [1,2-a][1,2]diazepin-10-yl)succinamide], the IC50 against Sppl2a CD74 was 0.649 µM; on human SPPL2a [1], 0.011 µM; against human SPPL2a [2], 0.06 µM.

With `Cc1cc(-c2cc(NC(=O)C[C@@H](C)C(=O)N[C@@H]3C(=O)N4CCCN4Cc4ccccc43)n(C)n2)on1` [Example 90, (R)-2-Methyl-N^4. (1-methyl-3-(3-methylisoxazol-5-yl)-1H-pyrazol-5-yl)-N^1-((S)-11-oxo-2,3,10,11-tetrahydro-1H,5H-benzo[d]pyrazolo [1,2-a][1,2]diazepin-10-yl)succinamide], the IC50 at Sppl2a CD74 is 0.635 µM; against human SPPL2a [1], 0.011 µM; against human SPPL2a [2], 0.011 µM.

On to `CC(C)NC(=O)c1ncc(NC(=O)C[C@@H](C)C(=O)N[C@@H]2C(=O)N3CCCN3Cc3ccccc32)s1` [Example 91, (R)-N^4-(2-(Isopropylcarba-moyl)thiazol-5-yl)-2-methyl-N^1-((S)-11-oxo-2,3,10,11-tetrahydro-1H,5H-benzo[d]pyrazolo [1,2-a][1,2]diazepin-10-yl)succinamide], for which the IC50 against Sppl2a CD74 came to 0.5 µM; against human SPPL2a [1], 0.011 µM; at human SPPL2a [2], 0.024 µM.

Take `CC(C)C(=O)Nc1cc(NC(=O)C[C@H](C(=O)N[C@@H]2C(=O)N3CC4(CC4)CN3C(=O)c3ccccc32)C2CC2)n(C)n1` [Example 93, (S)-2-Cyclopropyl-N^1-((S)-5,11-dioxo-10,11-dihydro-1H,3H,5H-spiro[benzo[d]pyrazolo[1,2-a][1,2]diazepine-2,1′-cyclopropan]-10-yl)-N^4-(3-isobutyramido-1-methyl-1H-pyrazol-5-yl)succinamide]: the figures for the IC50 at Sppl2a CD74, at human SPPL2a [1] and on human SPPL2a [2] were 1.13 µM, 0.012 µM and 0.168 µM, respectively.

With `C[C@H](CC(=O)Nc1cc(-c2ccccn2)nn1C)C(=O)N[C@@H]1C(=O)N2CCCN2Cc2ccccc21` [Example 94, (R)-2-Methyl-N^4-(1-methyl-3-(pyridin-2-yl)-1H-pyrazol-5-yl)-N^1-((S)-11-oxo-2,3,10,11-tetrahydro-1H,5H-benzo[d]pyrazolo [1,2-a][1,2]diazepin-10-yl)succinamide], the half-inhibitory concentration (IC50) stood at 2.54 µM against Sppl2a CD74, 0.012 µM on human SPPL2a [1] and 0.034 µM against human SPPL2a [2].
